Reference: patent US20070020747A1, “Composition for eliminating ethidium bromide and use thereof” (priority 2005, published 2007)

Assays:
[1] = UV examination of EtBr elimination by oxidants in glass bottles (Example 1); settings: for EtBr cleaning effect: oxidant 500 mM, not illuminated with UV; for EtBr cleaning effect / EtBr-eliminating effect (fluorescence): 60 min; for elimination of EtBr in solution (fluorescence): oxidant 20 or 500 mM, illuminated with UV for 60 minutes, groups 1-3
Experimental: 5M lithium nitrate (LiNO3), 5M sodium nitrite (NaNO2), and 5 µg/ml EtBr solutions were prepared.
7 glass bottles (about 7 ml of capacity) were prepared with solutions as described in Table 1. The bottle 1 was added 4 μl LiNO3 and 996 μl EtBr, wherein the final concentration of LiNO3 was 20 mM. The bottle 2 was added 100 μl LiNO3 and 900 μl EtBr, wherein the final concentration of LiNO3 was 500 mM. The bottle 3 was added 4 μl NaNO2 and 996 μl EtBr, wherein the final concentration of NaNO2 was 20 mM. The bottle 4 was added 100 μl NaNO2 and 900 μl EtBr, wherein the final concentration of NaNO2 was 500 mM. The bottle 5 was added 1 ml EtBr only. The bottle 6 was added 100 μl LiNO3 and 900 μl EtBr. The bottle 7 was added 100 μl NaNO2 and 900 μl EtBr.
The bottles 1-5 were illuminated with ultraviolet, which was 8 W and the wavelength was 180-280 nm. The samples were collected in the time point 0 and 60 minutes. The bottles 6 and 7 were not illuminated with ultraviolet and the samples were collected in the time point 60 minutes.
Except the wavelength of UV was changed to 280˜320 nm, all conditions were identical to group 1.
Except the wavelength of UV was changed to 320˜380 nm, all conditions were identical to group 1.
Each sample was collected 25 μl from the experimental bottle in the selected time point. There were 12 samples for each group, total 36 samples. These samples were dropped on the center of a filter paper (diameter 2.5 cm) and illuminated with UV to observe the elimination of EtBr.

[2] = UV examination of EtBr elimination by oxidants in beakers under a four-tube UV lid (Example 2); settings: oxidant 50 mM
Experimental: The appearance of the light source was a rectangular lid and the size was 35 cm×21 cm×15 cm. Four parallel 8 W UV tubes were implanted on the top of the lid.
5 beakers were prepared. Beaker 1 and 2 were added 100 μl LiNO3 and 9.9 ml EtBr, so that the final concentration of LiNO3 was 50 mM. Beaker 3 and 4 were added 100 μl NaNO2 and 9.9 ml EtBr, so that the final concentration of NaNO2 was 50 mM. Beaker 5 was added 10 ml EtBr only. The beakers 1, 3 and 5 were illuminated with UV, and the samples were collected in the time points 0, 15, 30, 60 and 120 minutes. The beakers 2 and 4 were not illuminated with UV, and the samples were collected in the time point 120 minutes.
Each sample was collected 25 μl from the experimental beaker in the selected time point. There were 17 samples totally. These samples were dropped on the center of a filter paper (diameter 2.5 cm) and illuminated with UV to observe the elimination of EtBr.

[3] = oxidant plus UV with wavelength 180~280 nm, 8 W
[4] = oxidant plus UV with wavelength 320~380 nm
[5] = oxidant plus UV, second wavelength printed as 180~280 nm (group 2: 280~320 nm)
[6] = after 60 minutes of UV illumination
[7] = after illuminating with UV for 15 minutes

SMILES	EtBr cleaning effect [1]	elimination of EtBr in solution (fluorescence) [1]	EtBr-eliminating effect (fluorescence) [1, 3]	EtBr-eliminating effect (fluorescence) [1, 4]	EtBr-eliminating effect (fluorescence) [1, 5]	destruction of EtBr (fluorescence) [2, 6]	destruction of EtBr (fluorescence) [2, 7]	destruction of EtBr (fluorescence) ([2]; no UV illumination, 120 min)
O=[N+]([O-])[O-].[Li+] [lithium nitrate]	no or insignificant EtBr cleaning effect	completely destroyed	strongest effect	less effective	modest effect	almost all of EtBr in the samples were destroyed	most EtBr	not destroyed (or insignificantly destroyed)
O=NO [sodium nitrite]	no or insignificant EtBr cleaning effect	completely destroyed	strongest effect	less effective	modest effect	almost all of EtBr in the samples were destroyed	most EtBr	not destroyed (or insignificantly destroyed)
